{"source": "patent US10548899B2", "about": "“Quinazolinone and benzotriazinone compounds with cholinergic muscarinin M1 receptor positive allosteric modulator activity” (TAKEDA PHARMACEUTICAL COMPANY LIMITED, priority 2015, dated 2020)", "target": "T1, human M1 receptor (hCHRM1) (Homo sapiens, UniProt P11229)", "T1 construct": "expressed in transfected cells; host or cells: CHO-K1", "T1 sequence (P11229 1-460)": "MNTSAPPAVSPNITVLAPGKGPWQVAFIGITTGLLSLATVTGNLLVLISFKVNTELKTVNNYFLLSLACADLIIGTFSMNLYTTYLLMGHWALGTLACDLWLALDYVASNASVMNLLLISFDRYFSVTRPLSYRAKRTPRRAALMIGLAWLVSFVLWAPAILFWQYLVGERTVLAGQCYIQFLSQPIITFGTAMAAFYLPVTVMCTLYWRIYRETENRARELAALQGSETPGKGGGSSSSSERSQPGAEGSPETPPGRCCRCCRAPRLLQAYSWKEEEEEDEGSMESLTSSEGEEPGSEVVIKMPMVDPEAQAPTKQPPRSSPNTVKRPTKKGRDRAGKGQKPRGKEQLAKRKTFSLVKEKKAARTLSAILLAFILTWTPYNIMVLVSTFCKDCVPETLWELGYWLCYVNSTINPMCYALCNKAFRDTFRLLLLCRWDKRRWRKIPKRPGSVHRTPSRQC", "experiment": "Measurement of M1 receptor positive allosteric modulator (M1PAM) activity (calcium fluorescence, Fluo-4, FDSS)", "format": "cell-based", "conditions": "for activity (%) at 10 μM: 10 μM test compound, acetylcholine EC20 (final 0.8 nM) present, 100% = acetylcholine 1 μM, 0% = DMSO, CHO-K1 hCHRM1 cells; for EC50: inflection point of concentration-dependent curve, CHO-K1 cells stably expressing hCHRM1, in presence of acetylcholine at EC20 concentration (final 0.8 nM), read-out: IP value", "experimental": "Measurement of M1 receptor positive allosteric modulator (M1PAM) activity\nThe activity of a test compound in the presence of acetylcholine at EC20 concentration (final concentration 0.8 nM), which affords an action corresponding to about 20% of the maximum activity, was measured as PAM activity. The method is as follows. CHO-K1 cells stably expressing a human M1 receptor (hCHRM1) were plated on a 384-well black clear bottom plate (BD Falcon) at 5,000 cells/well, and cultured in an incubator at 37° C., 5% CO2 for 1 day. The medium in the cell plate was removed, and assay buffer A containing a calcium indicator (Recording medium (DOJINDO LABORATORIES), 0.1% BSA (Wako Pure Chemical Industries, Ltd.), 2.5 μg/mL Fluo-4 AM (DOJINDO LABORATORIES), 0.08% Pluronic F127 (DOJINDO LABORATORIES) and 1.25 mM probenecid (DOJINDO LABORATORIES) were added at 30 μL/well. The cells were left standing in the incubator at 37° C., 5% CO2 for 30 min, and further left standing at room temperature for 30 min. A test compound prepared by diluting with assay buffer B (HESS (Invitrogen), 20 mM HEPES (Invitrogen), 0.1% BSA) containing 3.2 nM acetylcholine was added at 10 μL/well, and the fluorescence was measured by FDSS/μcell (Hamamatsu Photonics K.K.) for 1 min every for 1 second. With the definition that the amount of change in the fluorescence on addition of acetylcholine (final concentration 1 μM) is 100% and that on addition of DMSO instead of a test compound is 0%, the activity (%) of the test compound was calculated, and the inflection point in the concentration-dependent curve of the test compound was calculated as IP values.", "note": "Counter-ions that a name gives are not always drawn."}
{"smiles": "Cc1c(Cc2ccc(-n3cccn3)cc2)cc2c(=O)n([C@H]3CCCC[C@@H]3O)cnc2c1C", "note": "(relative stereo) [Example 1, 3-(trans-2-hydroxycyclohexyl)-7,8-dimethyl-6-(4-(1H-pyrazol-1-yl)benzyl)quinazolin-4(3H)-one]", "values": [{"measurement": "activity (%) at 10 μM", "result": 92, "unit": "%"}, {"measurement": "EC50", "result": 52, "unit": "nM"}]}
{"smiles": "Cc1c(Cc2ccc(-n3cccn3)cc2)cc2c(=O)n([C@H]3CCC[C@@H]3O)cnc2c1C", "note": "(relative stereo) [Example 2, 3-(trans-2-hydroxycyclopentyl)-7,8-dimethyl-6-(4-(1H-pyrazol-1-yl)benzyl)quinazolin-4(3H)-one]", "values": [{"measurement": "activity (%) at 10 μM", "result": 96, "unit": "%"}, {"measurement": "EC50", "result": 61, "unit": "nM"}]}
{"smiles": "Cc1c(Cc2ccc(-n3cccn3)cc2)cc2c(=O)n([C@H]3COCC[C@@H]3O)cnc2c1C", "note": "(relative stereo) [Example 3, 3-(trans-4-hydroxytetrahydro-2H-pyran-3-yl)-7,8-dimethyl-6-(4-(1H-pyrazol-1-yl)benzyl)quinazolin-4(3H)-one]", "values": [{"measurement": "activity (%) at 10 μM", "result": 98, "unit": "%"}, {"measurement": "EC50", "result": 15, "unit": "nM"}]}
{"smiles": "Cc1c(Cc2ccc(-c3cn(C)nn3)cc2)cc2c(=O)n([C@H]3CCC[C@@H]3O)cnc2c1C", "note": "(relative stereo) [Example 11, 3-(trans-2-hydroxycyclopentyl)-7,8-dimethyl-6-(4-(1-methyl-1H-1,2,3-triazol-4-yl)benzyl)quinazolin-4(3H)-one]", "values": [{"measurement": "activity (%) at 10 μM", "result": 101, "unit": "%"}, {"measurement": "EC50", "result": 15, "unit": "nM"}]}
{"smiles": "Cc1cc(-c2ccc(Cc3cc4c(=O)n([C@H]5CCC[C@@H]5O)cnc4c(C)c3C)cn2)ccn1", "note": "(relative stereo) [Example 12, 3-(trans-2-hydroxycyclopentyl)-7,8-dimethyl-6-((2′-methyl-2,4′-bipyridin-5-yl)methyl)quinazolin-4(3H)-one]", "values": [{"measurement": "activity (%) at 10 μM", "result": 99, "unit": "%"}, {"measurement": "EC50", "result": 39, "unit": "nM"}]}
{"smiles": "Cc1c(Cc2ccc(-c3cn(C)nn3)nc2)cc2c(=O)n([C@H]3CCC[C@@H]3O)cnc2c1C", "note": "(relative stereo) [Example 14, 3-(trans-2-hydroxycyclopentyl)-7,8-dimethyl-6-((6-(1-methyl-1H-1,2,3-triazol-4-yl)pyridin-3-yl)methyl)quinazolin-4(3H)-one]", "values": [{"measurement": "activity (%) at 10 μM", "result": 100, "unit": "%"}, {"measurement": "EC50", "result": 11, "unit": "nM"}]}
{"smiles": "Cc1c(Cc2ccc(-c3cnn(C)c3)nc2)cc2c(=O)n([C@H]3CCC[C@@H]3O)cnc2c1C", "note": "(relative stereo) [Example 15, 3-(trans-2-hydroxycyclopentyl)-7,8-dimethyl-6-((6-(1-methyl-1H-pyrazol-4-yl)pyridin-3-yl)methyl)quinazolin-4(3H)-one]", "values": [{"measurement": "activity (%) at 10 μM", "result": 100, "unit": "%"}, {"measurement": "EC50", "result": 11, "unit": "nM"}]}
{"smiles": "Cc1c(Cc2ccc(-c3cnn(C)c3)cc2)cc2c(=O)n([C@H]3CCC[C@@H]3O)cnc2c1C", "note": "(relative stereo) [Example 17, 3-(trans-2-hydroxycyclopentyl)-7,8-dimethyl-6-(4-(1-methyl-1H-pyrazol-4-yl)benzyl)quinazolin-4(3H)-one]", "values": [{"measurement": "activity (%) at 10 μM", "result": 90, "unit": "%"}, {"measurement": "EC50", "result": 55, "unit": "nM"}]}
{"smiles": "Cc1c(Cc2ccc(Cl)nc2)cc2c(=O)n([C@H]3CCCC[C@@H]3O)cnc2c1C", "note": "(relative stereo) [Example 19, 6-((6-chloropyridin-3-yl)methyl)-3-(trans-2-hydroxycyclohexyl)-7,8-dimethylquinazolin-4(3H)-one]", "values": [{"measurement": "activity (%) at 10 μM", "result": 97, "unit": "%"}, {"measurement": "EC50", "result": 66, "unit": "nM"}]}
{"smiles": "COc1cc(Cc2ccc(-c3cnn(C)c3)cc2)cc2c(=O)n([C@H]3CCC[C@@H]3O)cnc12", "note": "(relative stereo) [Example 20, 3-(trans-2-hydroxycyclopentyl)-8-methoxy-6-(4-(1-methyl-1H-pyrazol-4-yl)benzyl)quinazolin-4(3H)-one]", "values": [{"measurement": "activity (%) at 10 μM", "result": 97, "unit": "%"}, {"measurement": "EC50", "result": 61, "unit": "nM"}]}
{"smiles": "Cc1cc2ncn([C@H]3CCC[C@@H]3O)c(=O)c2cc1Cc1ccc(-c2cn(C)nn2)cc1", "note": "(relative stereo) [Example 21, 3-(trans-2-hydroxycyclopentyl)-7-methyl-6-(4-(1-methyl-1H-1,2,3-triazol-4-yl)benzyl)quinazolin-4(3H)-one]", "values": [{"measurement": "activity (%) at 10 μM", "result": 97, "unit": "%"}, {"measurement": "EC50", "result": 51, "unit": "nM"}]}
{"smiles": "Cc1ccc(Cc2cc3c(=O)n([C@H]4CCCC[C@@H]4O)cnc3c(C)c2C)cn1", "note": "(relative stereo) [Example 35, 3-(trans-2-hydroxycyclohexyl)-7,8-dimethyl-6-((6-methylpyridin-3-yl)methyl)quinazolin-4(3H)-one]", "values": [{"measurement": "activity (%) at 10 μM", "result": 96, "unit": "%"}, {"measurement": "EC50", "result": 41, "unit": "nM"}]}
{"smiles": "Cc1c(Cc2ccc(-c3cn(C)nn3)cc2)cc2c(=O)n([C@H]3CCC[C@@H]3O)nnc2c1C", "note": "(relative stereo) [Example 40, 3-(trans-2-hydroxycyclopentyl)-7,8-dimethyl-6-(4-(1-methyl-1H-1,2,3-triazol-4-yl)benzyl)-1,2,3-benzotriazin-4(3H)-one]", "values": [{"measurement": "activity (%) at 10 μM", "result": 94, "unit": "%"}, {"measurement": "EC50", "result": 70, "unit": "nM"}]}
{"smiles": "Cc1c(Cc2ccc(-n3ccnc3)nc2)cc2c(=O)n([C@H]3COCC[C@@H]3O)nnc2c1C", "note": "(relative stereo) [Example 42, 3-(trans-4-hydroxytetrahydro-2H-pyran-3-yl)-6-((6-(1H-imidazol-1-yl)pyridin-3-yl)methyl)-7,8-dimethyl-1,2,3-benzotriazin-4(3H)-one]", "values": [{"measurement": "activity (%) at 10 μM", "result": 100, "unit": "%"}, {"measurement": "EC50", "result": 31, "unit": "nM"}]}
{"smiles": "Cc1c(Cc2ccc(-c3ccn(C)n3)cc2)cc2c(=O)n([C@H]3COCC[C@@H]3O)nnc2c1C", "note": "(relative stereo) [Example 46, 3-(trans-4-hydroxytetrahydro-2H-pyran-3-yl)-7,8-dimethyl-6-(4-(1-methyl-1H-pyrazol-3-yl)benzyl)-1,2,3-benzotriazin-4(3H)-one]", "values": [{"measurement": "activity (%) at 10 μM", "result": 97, "unit": "%"}, {"measurement": "EC50", "result": 32, "unit": "nM"}]}
{"smiles": "Cc1c(Cc2ccc(-c3cn(C)nn3)cc2)cc2c(=O)n([C@H]3CCC[C@@H]3O)cnc2c1C", "note": "(single isomer, unassigned) [Example 22, 3-(trans-2-hydroxycyclopentyl)-7,8-dimethyl-6-(4-(1-methyl-1H-1,2,3-triazol-4-yl)benzyl)quinazolin-4(3H)-one]", "values": [{"measurement": "activity (%) at 10 μM", "result": 95, "unit": "%"}, {"measurement": "EC50", "result": 79, "unit": "nM"}]}
{"smiles": "Cc1c(Cc2ccc(-c3cn(C)nn3)cc2)cc2c(=O)n([C@@H]3CCC[C@H]3O)cnc2c1C", "note": "(single isomer, unassigned) [Example 23, 3-(trans-2-hydroxycyclopentyl)-7,8-dimethyl-6-(4-(1-methyl-1H-1,2,3-triazol-4-yl)benzyl)quinazolin-4(3H)-one]", "values": [{"measurement": "activity (%) at 10 μM", "result": 88, "unit": "%"}, {"measurement": "EC50", "result": 13, "unit": "nM"}]}
{"smiles": "Cc1c(Cc2ccc(-c3cnn(C)c3)nc2)cc2c(=O)n([C@H]3CCC[C@@H]3O)cnc2c1C", "note": "(single isomer, unassigned) [Example 50, 3-(trans-2-hydroxycyclopentyl)-7,8-dimethyl-6-((6-(1-methyl-1H-pyrazol-4-yl)pyridin-3-yl)methyl)quinazolin-4(3H)-one]", "values": [{"measurement": "activity (%) at 10 μM", "result": 102, "unit": "%"}, {"measurement": "EC50", "result": 6.5, "unit": "nM"}]}
{"smiles": "Cc1c(Cc2ccc(-c3cnn(C)c3)nc2)cc2c(=O)n([C@H]3CCC[C@@H]3O)cnc2c1C", "note": "(single isomer, unassigned) [Example 51, 3-(trans-2-hydroxycyclopentyl)-7,8-dimethyl-6-((6-(1-methyl-1H-pyrazol-4-yl)pyridin-3-yl)methyl)quinazolin-4(3H)-one]", "values": [{"measurement": "activity (%) at 10 μM", "result": 97, "unit": "%"}, {"measurement": "EC50", "result": 79, "unit": "nM"}]}
{"smiles": "Cc1c(Cc2ccc(-n3cccn3)cc2)cc2c(=O)n([C@H]3COCC[C@@H]3O)cnc2c1C", "note": "(single isomer, unassigned) [Example 52, 3-(trans-4-hydroxytetrahydro-2H-pyran-3-yl)-7,8-dimethyl-6-(4-(1H-pyrazol-1-yl)benzyl)quinazolin-4(3H)-one]", "values": [{"measurement": "activity (%) at 10 μM", "result": 98, "unit": "%"}, {"measurement": "EC50", "result": 6, "unit": "nM"}]}
{"smiles": "Cc1c(Cc2ccc(-c3cnn(C)c3)nc2)cc2c(=O)n(CC3CCCO3)cnc2c1Cl", "note": "(centres unmarked) [Example 25, 8-chloro-7-methyl-6-((6-(1-methyl-1H-pyrazo-4-yl)pyridin-3-yl)methyl)-3-(tetrahydrofuran-2-ylmethyl)quinazolin-4(3H)-one hydrochloride]", "values": [{"measurement": "activity (%) at 10 μM", "result": 95, "unit": "%"}, {"measurement": "EC50", "result": 62, "unit": "nM"}]}
{"smiles": "Cc1c(Cc2ccc(-n3cccn3)cc2)cc2c(=O)n([C@H]3COCC[C@@H]3O)cnc2c1F", "note": "[Example 38, 8-fluoro-3-((3S,4S)-4-hydroxytetrahydro-2H-pyran-3-yl)-7-methyl-6-(4-(1H-pyrazol-1-yl)benzyl)quinazolin-4(3H)-one]", "values": [{"measurement": "activity (%) at 10 μM", "result": 100, "unit": "%"}, {"measurement": "EC50", "result": 17, "unit": "nM"}]}
